Assay results: patent US8617879B2, “Apparatus for cell or tissue culture” (Agency for Science, Technology and Research, priority 2009, dated 2013)

Tested on: C3A cells
Assay: APAP-induced hepatotoxicity IC50 measurement with robotic liquid handler
Format: cell-based
Conditions: Homo sapiens
Description: Using the human liver cancer cell line C3A, cultured in the bioreactor, IC50 value measurements were conducted with a robotic liquid handler (FIG. 16).

CC(=O)Nc1ccc(O)cc1 [APAP, acetaminophen]
IC50 (C3A cells cultured in Si3N4—SC (static)): 80 mM | IC50 (C3A cells cultured in Si3N4—SCP (Si3N4 sandwich perfusion in 96-well bioreactor)): 71 mM | IC50 (C3A cells cultured in collagen gel sandwich (static)): 84.6 mM
